Experimental data as given in patent US20230146455A1, “TREATMENT OF INFLAMMATORY DISEASES WITH PEPTIDES AND PHARMACEUTICAL COMPOSITIONS” (Yuyu Pharma, Inc., priority 2020, published 2023).
Where “and” joins values, the source holds several entries; their conditions need not be identical. Identical values can stand only once. Where a SMILES comes first, the peptide text is derived from it. [ ]: non-standard residue; d: D form. Hyp = O=C(O)[C@@H]1C[C@@H](O)CN1

Key:
[1] = tested on: TIMP-1; test: Example 8 main study Luminex, LPS hPBMCs: TIMP-1; format: cell-based, human; details: PBMC + LPS(5 ug/ml)
Experimental: (§1) Human PBMCs were pretreated with YY-101, YDE-011, YDE-043 or reference compound; Xiidra® at various concentration (ranging from […] to 500 nM) for 2 h before stimulation. An equal volume of 0.5% DMSO was used as a vehicle control. Then, the cells were treated with LPS at 5 ug/ml, which was selected based on the pilot study. The supernatants from treated cells were harvested at 24 h and placed in a 96 well for Luminex cytokine & chemokine profiling using a Luminex 200 multiplex assay (Luminex; R&D system, USA).
(§2) The main study arm with triplicate wells per group in a 24-well plate: • 1. Blank • 2. PBMC: 0.5% DMSO • 3. PBMC+LPS (5 ug/ml) • 4. PBMC+YY-101 500 nM • 5. PBMC+YY-101 50 nM • 6. PBMC+YY-101 5 nM • 7. PBMC+YY-101 0.5 nM • 8. PBMC+LPS (5 ug/ml)+Xiidra® 500 nM • 9. PBMC+LPS (5 ug/ml)+Xiidra® 50 nM • 10. PBMC+LPS (5 ug/ml)+Xiidra® 5 nM • 11. PBMC+LPS (5 ug/ml)+Xiidra® 0.5 nM • 12. PBMC+LPS (5 ug/ml)+Xiidra® 0.05 nM • 13. PBMC+LPS (5 ug/ml)+Xiidra® 0.005 nM • 14. PBMC+LPS (5 ug/ml)+YY-101 500 nM • 15. PBMC+LPS (5 ug/ml)+YY-101 50 nM • 16. PBMC+LPS (5 ug/ml)+YY-101 5 nM • 17. PBMC+LPS (5 ug/ml)+YY-101 0.5 nM • 18. PBMC+LPS (5 ug/ml)+YY-101 0.05 nM • 19. PBMC+LPS (5 ug/ml)+YY-101 0.005 nM • 20. PBMC+LPS (5 ug/ml)+YDE-011 500 nM • 21. PBMC+LPS (5 ug/ml)+YDE-011 50 nM • 22. PBMC+LPS (5 ug/ml)+YDE-011 5 nM • 23. PBMC+LPS (5 ug/ml)+YDE-011 0.5 nM • 24. PBMC+LPS (5 ug/ml)+YDE-011 0.05 nM • 25. PBMC+LPS (5 ug/ml)+YDE-011 0.005 nM • 26. PBMC+LPS (5 ug/ml)+YDE-043 500 nM • 27. PBMC+LPS (5 ug/ml)+YDE-043 50 nM • 28. PBMC+LPS (5 ug/ml)+YDE-043 5 nM • 29. PBMC+LPS (5 ug/ml)+YDE-043 0.5 nM • 30. PBMC+LPS (5 ug/ml)+YDE-043 0.05 nM • 31. PBMC+LPS (5 ug/ml)+YDE-043 0.005 nM
(§3) Multiplex assay was used to measure 30 cytokines and chemokines. The 1:200 diluted cell supernatant and serial dilution of the standard were dispensed into a 96 well plate at 50 ul/well. Then, the pre-mixed cocktail of antibody-coated magnetic beads was dispensed at 50 ul/well and incubated at room temperature for 2 h in a horizontal orbital microplate shaker at 800±500 rpm. The beads were washed using a magnetic device to prevent loss. The biotin-antibody was dispensed in 50 ul of each well and incubated at room temperature for 1 h in a shaker at 800±500 rpm. After washing, streptavidin-PE was added at 50 ul/well and incubated at room temperature for 30 min in a shaker under the same conditions. Finally, after washing, wash buffer (100 ul/well) was added to the plate and incubated in a shaker for 2 min. The Luminex™ 200 setting were set according to the manufacturer's protocol. The data was calculated with a standard five-parameter logistic nonlinear regression analysis of the data (xPonent software 4.2, USA). Results were presented as concentration (ng/ml or pg/ml).

[2] = tested on: MMP-9; test: Example 8 main study Luminex, LPS hPBMCs: MMP-9; format: cell-based, human; details: PBMC + LPS(5 ug/ml)
Experimental: as §1, §2, §3

[3] = test article 0.005 nM, single replicates
[4] = test article 0.05 nM, single replicates
[5] = test article 0.5 nM, single replicates
[6] = test article 5 nM, single replicates
[7] = test article 50 nM, single replicates
[8] = test article 500 nM, single replicates

Row | Compound | TIMP-1 Concentration (pg/ml), Mean ([1]; test article 0.005 nM) | TIMP-1 Concentration (pg/ml), single replicates ([1]; test article 0.005 nM) | TIMP-1 Concentration (pg/ml), Mean ([1]; test article 0.05 nM) | TIMP-1 Concentration (pg/ml), single replicates ([1]; test article 0.05 nM) | TIMP-1 Concentration (pg/ml), Mean ([1]; test article 0.5 nM) | TIMP-1 Concentration (pg/ml), single replicates ([1]; test article 0.5 nM) | TIMP-1 Concentration (pg/ml), Mean ([1]; test article 5 nM) | TIMP-1 Concentration (pg/ml), single replicates ([1]; test article 5 nM) | TIMP-1 Concentration (pg/ml), Mean ([1]; test article 50 nM) | TIMP-1 Concentration (pg/ml), single replicates ([1]; test article 50 nM) | TIMP-1 Concentration (pg/ml), Mean ([1]; test article 500 nM) | TIMP-1 Concentration (pg/ml), single replicates ([1]; test article 500 nM) | Concentration (pg/ml), MMP-9 ([2]; test article 0.005 nM, Mean) | MFI (Bead name: MMP-9) ([2]; test article 0.005 nM, Mean) | Concentration (pg/ml), MMP-9 [2, 3] | MFI (Bead name: MMP-9) [2, 3] | Concentration (pg/ml), MMP-9 ([2]; test article 0.05 nM, Mean) | MFI (Bead name: MMP-9) ([2]; test article 0.05 nM, Mean) | Concentration (pg/ml), MMP-9 [2, 4] | MFI (Bead name: MMP-9) [2, 4] | also measured
1 | CC(C)C[C@H](NC(=O)CNC(=O)[C@H](CC(C)C)NC(=O)[C@H](CCC(N)=O)NC(=O)CNC(=O)[C@@H]1C[C@@H](O)CN1)C(=O)N[C@@H](C)C(=O)NCC(=O)N1CCC[C@H]1C(=O)N[C@@H](CCCCN)C(=O)O [YDE-011] (H-[Hyp]GQLGLAGPK-OH) | 4036.4 pg/mL | 4259.2 pg/ml (2×) and 3590.9 pg/ml | 4288.3 pg/mL | 4414.6 pg/mL and 3590.9 pg/mL and 4859.3 pg/mL | 4080.2 pg/mL | 3590.9 pg/mL and 3935.4 pg/mL and 4714.4 pg/mL | 4128.5 pg/mL | 4859.3 pg/mL and 3935.4 pg/mL and 3590.9 pg/mL | 4253.6 pg/mL | 3935.4 pg/mL and 4259.2 pg/mL and 4566.3 pg/mL | 3820.5 pg/mL | 3935.4 pg/ml (2×) and 3590.9 pg/ml | 4251.7 pg/mL | 29.8 | 4148.1 pg/mL and 4612.9 pg/mL and 3994.2 pg/mL | 29.5 and 31.0 and 29.0 | 4509.4 pg/mL | 30.7 | 4612.9 pg/ml (2×) and 4302.5 pg/ml | 31.0 (2×) and 30.0 | Concentration (pg/ml), MMP-9 ([2]; test article 0.5 nM, Mean): 3435.2 pg/mL; MFI (Bead name: MMP-9) ([2]; test article 0.5 nM, Mean): 27.2; Concentration (pg/ml), MMP-9 [2, 5]: 3384.2 pg/mL and 3688.0 pg/mL and 3233.2 pg/mL; MFI (Bead name: MMP-9) [2, 5]: 27.0 and 28.0 and 26.5; Concentration (pg/ml), MMP-9 ([2]; test article 5 nM, Mean): 3299.3 pg/mL; MFI (Bead name: MMP-9) ([2]; test article 5 nM, Mean): 26.7; Concentration (pg/ml), MMP-9 [2, 6]: 1907.3 pg/mL and 3688.0 pg/mL and 4302.5 pg/mL; MFI (Bead name: MMP-9) [2, 6]: 22.0 and 28.0 and 30.0; Concentration (pg/ml), MMP-9 ([2]; test article 50 nM, Mean): 2555.4 pg/mL; MFI (Bead name: MMP-9) ([2]; test article 50 nM, Mean): 24.2; Concentration (pg/ml), MMP-9 [2, 7]: 2636.1 pg/mL and 3688.0 pg/mL and 1342.1 pg/mL; MFI (Bead name: MMP-9) [2, 7]: 24.5 and 28.0 and 20.0; Concentration (pg/ml), MMP-9 ([2]; test article 500 nM, Mean): 2776.4 pg/mL; MFI (Bead name: MMP-9) ([2]; test article 500 nM, Mean): 24.8; Concentration (pg/ml), MMP-9 [2, 8]: 4612.9 pg/mL and 931.9 pg/mL and 2784.3 pg/mL; MFI (Bead name: MMP-9) [2, 8]: 31.0 and 18.5 and 25.0
2 | CC(C)C[C@H](NC(=O)[C@H](CCC(N)=O)NC(=O)CNC(=O)[C@@H]1C[C@@H](O)CN1)C(=O)NCC(=O)O [YDE-043] (H-[Hyp]GQLG-OH; N-terminus and C-terminus assumed) | 4681.6 pg/mL | 3935.4 pg/mL and 5543.0 pg/mL and 4566.3 pg/mL | 4088.2 pg/mL | 4259.2 pg/mL and 4414.6 pg/mL and 3590.9 pg/mL | 4203.1 pg/mL | 4259.2 pg/mL and 4414.6 pg/mL and 3935.4 pg/mL | 4463.9 pg/mL | 4566.3 pg/ml (2×) and 4259.2 pg/ml | 4351.3 pg/mL | 3935.4 pg/mL and 4859.3 pg/mL and 4259.2 pg/mL | 4299.5 pg/mL | 4566.3 pg/ml (2×) and 3766.0 pg/ml | 5247.2 pg/mL | 33.0 | 3994.2 pg/mL and 5555.3 pg/mL and 6192.0 pg/mL | 29.0 and 34.0 and 36.0 | 3943.4 pg/mL | 28.8 | 3994.2 pg/mL and 4148.1 pg/mL and 3688.0 pg/mL | 29.0 and 29.5 and 28.0 | Concentration (pg/ml), MMP-9 ([2]; test article 0.5 nM, Mean): 3536.4 pg/mL; MFI (Bead name: MMP-9) ([2]; test article 0.5 nM, Mean): 27.5; Concentration (pg/ml), MMP-9 [2, 5]: 3688.0 pg/ml (2×) and 3233.2 pg/ml; MFI (Bead name: MMP-9) [2, 5]: 28.0 (2×) and 26.5; Concentration (pg/ml), MMP-9 ([2]; test article 5 nM, Mean): 3842.1 pg/mL; MFI (Bead name: MMP-9) ([2]; test article 5 nM, Mean): 28.5; Concentration (pg/ml), MMP-9 [2, 6]: 4302.5 pg/mL and 3688.0 pg/mL and 3535.8 pg/mL; MFI (Bead name: MMP-9) [2, 6]: 30.0 and 28.0 and 27.5; Concentration (pg/ml), MMP-9 ([2]; test article 50 nM, Mean): 3892.8 pg/mL; MFI (Bead name: MMP-9) ([2]; test article 50 nM, Mean): 28.7; Concentration (pg/ml), MMP-9 [2, 7]: 3688.0 pg/ml (2×) and 4302.5 pg/ml; MFI (Bead name: MMP-9) [2, 7]: 28.0 (2×) and 30.0; Concentration (pg/ml), MMP-9 ([2]; test article 500 nM, Mean): 4100.4 pg/mL; MFI (Bead name: MMP-9) ([2]; test article 500 nM, Mean): 29.3; Concentration (pg/ml), MMP-9 [2, 8]: 3688.0 pg/ml (2×) and 4925.2 pg/ml; MFI (Bead name: MMP-9) [2, 8]: 28.0 (2×) and 32.0
